Source: patent US11319322B2, “Substituted aryl ether compound, preparation method thereof, pharmaceutical composition and use thereof” (Xiamen University, priority 2017, dated 2022)

How the values were obtained:
Format in all cases: cell-based
CCDC6-RET-BaF3 = biological target: T1, CCDC6-RET-BaF3 (Homo sapiens, UniProt P07949); test: Growth inhibition of CCDC6-RET-BaF3 cells stably transfected with kinase (MTS); conditions: 48 h, read-out: CCDC6-RET (IC50/nM)
T1 construct: fused on or other part: Q16204 (Coiled-coil domain-containing protein 6)
T1 sequence (P07949 whole entry, change not shown, the tested form may be a part): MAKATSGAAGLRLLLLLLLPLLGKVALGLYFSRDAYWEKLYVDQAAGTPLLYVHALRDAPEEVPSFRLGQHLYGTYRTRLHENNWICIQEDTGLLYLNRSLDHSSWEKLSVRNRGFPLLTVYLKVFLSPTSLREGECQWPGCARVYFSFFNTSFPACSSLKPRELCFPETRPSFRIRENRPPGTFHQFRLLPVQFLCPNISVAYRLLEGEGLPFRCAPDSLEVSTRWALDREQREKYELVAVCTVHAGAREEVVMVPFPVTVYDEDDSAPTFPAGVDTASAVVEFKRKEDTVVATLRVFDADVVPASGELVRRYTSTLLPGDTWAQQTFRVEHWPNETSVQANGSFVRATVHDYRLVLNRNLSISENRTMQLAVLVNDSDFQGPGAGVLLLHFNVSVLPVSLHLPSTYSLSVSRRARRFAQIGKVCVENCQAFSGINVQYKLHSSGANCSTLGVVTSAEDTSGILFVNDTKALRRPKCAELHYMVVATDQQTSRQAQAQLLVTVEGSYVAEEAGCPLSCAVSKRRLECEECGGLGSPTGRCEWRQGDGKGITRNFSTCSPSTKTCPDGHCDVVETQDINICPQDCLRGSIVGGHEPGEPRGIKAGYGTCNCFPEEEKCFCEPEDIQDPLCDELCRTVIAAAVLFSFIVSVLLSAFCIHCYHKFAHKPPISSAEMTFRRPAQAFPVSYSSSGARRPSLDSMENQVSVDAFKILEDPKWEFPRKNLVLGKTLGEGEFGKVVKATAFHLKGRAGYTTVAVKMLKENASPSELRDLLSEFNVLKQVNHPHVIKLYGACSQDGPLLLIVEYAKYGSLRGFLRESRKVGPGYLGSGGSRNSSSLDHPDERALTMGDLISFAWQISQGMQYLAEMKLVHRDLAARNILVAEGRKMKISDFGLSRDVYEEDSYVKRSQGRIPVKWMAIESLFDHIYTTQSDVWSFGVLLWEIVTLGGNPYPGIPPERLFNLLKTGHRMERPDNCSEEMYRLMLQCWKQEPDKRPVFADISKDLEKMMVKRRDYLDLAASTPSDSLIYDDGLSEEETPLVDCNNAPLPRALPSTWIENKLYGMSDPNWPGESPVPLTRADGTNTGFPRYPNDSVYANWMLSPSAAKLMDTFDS
Procedure, shortened: (§1)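 IC50 derived from growth inhibition by MTS absorbance at 490 nm after 48 h compound exposure (top 10 μM, 1:3 steps, 8 points, 0.1% DMSO) of 2×10^4 RET-fusion (CCDC6-RET, KIF5B-RET) or wild-type BaF3 cells per well, in triplicate.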

KIF5B-RET-BaF3 = biological target: T2, KIF5B-RET-BaF3 (Homo sapiens, UniProt P07949); test: Growth inhibition of KIF5B-RET-BaF3 cells stably transfected with kinase (MTS); conditions: 48 h, read-out: KIF5B-RET (IC50/nM)
T2 construct: fused on or other part: P33176 (Kinesin-1 heavy chain)
T2 sequence (P07949 whole entry, change not shown, the tested form may be a part): as above
Procedure, shortened: as §1

wild-type BaF3 = test: Growth inhibition of wild-type BaF3 cells, broad-spectrum toxicity (MTS); conditions: Mus musculus, 48 h, read-out: WT Ba/F3 (IC50/nM)
Description: Growth inhibitory activity of compounds on cell lines stably transfected with kinase
The activity of compounds against kinase RET is evaluated by their effect of inhibiting growth of cell lines stably transfected with kinase CCDC6-RET-BaF3, KIF5B-RET-BaF3, and wild-type BaF3 (Proc. Natl. Acad. Sci. USA., 2006, 103, 3153-8.). The growth of the cell lines stably transfected with kinase CCDC6-RET-BaF3, KIF5B-RET-BaF3 depends on their kinase activity. If a compound can inhibit the activity of the kinase RET per se or the activity of the RET signaling pathway, the compound can inhibit the growth of BaF3 cells stably transfected with kinase. […] Therefore, a larger ratio between IC50 of a compound to wild-type BaF3 and IC50 of the compound to the cell lines stably transfected with kinase CCDC6-RET-BaF3, KIF5B-RET-BaF3 indicates better targeting.
The specific test method is given as follows:
1) Medium: DMEM (Dulbecco's modified eagle medium) or RPMI 1640 (containing 10% fetal bovine serum, 100 μg/mL ampicillin, 100 μg/mL streptomycin).
2) Reagents: MTS reaction solution (containing 2 mg/mL of MTS [3-(4,5-dimethylthiazol-2-yl)-5-(3-carboxymethoxyphenyl)-2-(4-sulfophenyl)-2H-tetrazolium, inner Salt]; 100 μg/mL PES (phenazine […])).
3) Compound test: cells stably transfected with kinase (CCDC6-RET-BaF3, KIF5B-RET-BaF3) or wild-type BaF3 cells (2×10^4 cells/well) were incubated into a 96-well culture plate, the volume of cell culture fluid was 90 μL, and then 10 μL of the compound at each gradient concentration was added (the highest concentration was 10 μM, which was diluted stepwise by ⅓, and 8 concentration points were set in total; the system contained 0.1% DMSO (dimethyl sulfoxide)). The cell plate with uniformly mixed compound was cultured in a cell culture incubator (37° C.; 5% CO2) for 48 h, then 20 μL of MTS reaction solution was added, uniformly mixed and incubated in the cell culture incubator (37° C.; 5% CO2) for 1-4 hr, OD values at 490 nm were measured by a microplate reader (VARIOSKAN FLASH, Thermo). Three parallels were set in each group of experiments, with 0.1% (a final concentration) DMSO as a negative control, and a medium without cells or compounds as a blank control. The cell growth inhibition rate was calculated by the following formula: Cell growth inhibition rate %=1−(ODexperimental group−ODblank group)/(ODnegative group−ODblank group)×100%
4) IC50 calculation: The semi-inhibitory concentration of the compound acting on cell growth was calculated using GradPad Prism 5 software according to the measured cell growth inhibition rate.

Structure (SMILES)	GI50 (CCDC6-RET-BaF3)	GI50 (KIF5B-RET-BaF3)	IC50 (wild-type BaF3)
CN1CCN(Cc2ccc(C(=O)Nc3cc(Oc4nc(-c5ccc(O)cc5)nc5ccn(C)c45)ccc3Cl)cc2C(F)(F)F)CC1 [III-k-10]	2300 nM	2440 nM	1440 nM
CN1CCN(Cc2ccc(NC(=O)c3cccc(Oc4cc(-c5cccnc5)nc5c4ccn5C)c3)cc2C(F)(F)F)CC1 [V-I-3]	587 nM	595 nM	1240 nM
CN1CCN(Cc2ccc(C(=O)Nc3cc(Oc4nc(-c5ccoc5)nc5ccn(C)c45)ccc3Cl)cc2C(F)(F)F)CC1 [III-k-6]	990 nM	1010 nM	2470 nM
Cc1ccc(C(=O)Nc2ccc(CN3CCN(C)CC3)c(C(F)(F)F)c2)cc1Oc1cc(-c2ccncc2)nc2c1ccn2C [V-m-4]	1240 nM	811 nM	1420 nM
Cc1ccc(Oc2nc(-c3ccc(O)cc3)nc3cc[nH]c23)cc1NC(=O)c1ccc(CN2CCN(C)CC2)c(C(F)(F)F)c1 [III-j-13]	1720 nM	2400 nM	4150 nM
Cc1ccc(C(=O)Nc2ccc(CN3CCN(C)CC3)c(C(F)(F)F)c2)cc1Oc1nc(N2CCN(C)CC2)nc2ccn(C)c12 [III-m-23]	515 nM	477 nM	464 nM
CN1CCN(Cc2ccc(NC(=O)c3cc(Oc4nc(-c5ccncc5)nc5ccn(C)c45)ccc3-c3ccncc3)cc2C(F)(F)F)CC1 [III-v-1]	431 nM	835 nM	> 10000 nM
Cc1ccc(C(=O)Nc2ccc(CN3CCN(C)CC3)c(C(F)(F)F)c2)cc1Oc1ncnc2ccn(C)c12 [III-m-22]	597 nM	854 nM	> 10000 nM
Cc1ccc(C(=O)Nc2ccc(CN3CCN(C)CC3)c(C(F)(F)F)c2)cc1Oc1cc(-c2cccnc2)nc2[nH]ccc12 [V-m-1]	1020 nM	473 nM	1380 nM
CN1CCN(Cc2ccc(C(=O)Nc3cc(Oc4nc(-c5ccncc5)nc5cc[nH]c45)ccc3Cl)cc2C(F)(F)F)CC1 [III-k-2]	0.79 nM	17.2 nM	1340 nM
Cc1ccc(Oc2nc(-c3ccccc3)nc3c2ncn3C)cc1NC(=O)c1ccc(CN2CCN(C)CC2)c(C(F)(F)F)c1 [I-j-2]	2130 nM	1580 nM	2110 nM
CN1CCN(Cc2ccc(NC(=O)c3cc(Oc4nc(-c5cccnc5)nc5ccsc45)ccc3Cl)cc2C(F)(F)F)CC1 [VI-o-1]	2170 nM	2870 nM	3990 nM
CN1CCN(Cc2ccc(C(=O)Nc3cccc(Oc4nc(-c5ccncc5)nc5ccsc45)c3)cc2C(F)(F)F)CC1 [VI-h-2]	561 nM	493 nM	3900 nM
Cc1ccc(Oc2nc(-c3cccnc3)nc3ccsc23)cc1C(=O)Nc1ccc(CN2CCN(C)CC2)c(C(F)(F)F)c1 [VI-n-1]	3240 nM	2840 nM	4190 nM
CN1CCN(Cc2ccc(C(=O)Nc3cc(Oc4nc(-c5ccncc5)nc5ccn(C)c45)ccc3Cl)cc2C(F)(F)F)CC1 [III-k-4]	11.2 nM	70.7 nM	1620 nM
Cc1ccc(C(=O)Nc2ccc(CN3CCN(C)CC3)c(C(F)(F)F)c2)cc1Oc1nc(-c2cccc(O)c2)nc2cc[nH]c12 [III-m-7]	1410 nM	2350 nM	4330 nM
Cc1ccc(Oc2cc(-c3cccnc3)nc3[nH]ccc23)cc1C(=O)Nc1ccc(CN2CCN(C)CC2)c(C(F)(F)F)c1 [V-n-1]	2900 nM	2120 nM	2310 nM
Cc1ccc(C(=O)Nc2cccc(C(F)(F)F)c2)cc1Oc1nc(-c2ccncc2)nc2nn(C)cc12 [IV-e-2]	2910 nM	8450 nM	2220 nM
CN1CCN(Cc2ccc(C(=O)Nc3cc(Oc4nc(-c5ccoc5)nc5cc[nH]c45)ccc3Cl)cc2C(F)(F)F)CC1 [III-k-5]	1490 nM	1920 nM	4360 nM
CN1CCN(Cc2cc(NC(=O)c3cccc(Oc4nc(-c5ccncc5)nc5cc[nH]c45)c3)cc(C(F)(F)F)c2)CC1 [III-p-2]	449 nM	672 nM	> 10000 nM
